In assay [1] the target is T1, Carbonic anhydrase 12 (Homo sapiens, UniProt O43570). Put plainly: Inhibition of human carbonic anhydrase 12.
The target in assay [2] is T1, Carbonic anhydrase 12. Put plainly: Binding affinity to human recombinant carbonic anhydrase 12 expressed in Escherichia coli Rosetta (DE3) assessed as protein stability at pH 5 by fluorescent thermal shift assay.
The target in assay [3] is T1, Carbonic anhydrase 12. Put plainly: Binding affinity to human recombinant carbonic anhydrase 12 expressed in Escherichia coli Rosetta (DE3) assessed as protein stability at pH 10 by fluorescent thermal shift assay.
Assay [4] has as its target T1, Carbonic anhydrase 12. Put plainly: Binding affinity to human recombinant carbonic anhydrase 12 expressed in Escherichia coli Rosetta (DE3) assessed as protein stability at pH 6 by fluorescent thermal shift assay.

Calls of active or inactive are those of the source. The calls are words filed in the database; no cut-off is given here.

T1 sequence (O43570 whole entry): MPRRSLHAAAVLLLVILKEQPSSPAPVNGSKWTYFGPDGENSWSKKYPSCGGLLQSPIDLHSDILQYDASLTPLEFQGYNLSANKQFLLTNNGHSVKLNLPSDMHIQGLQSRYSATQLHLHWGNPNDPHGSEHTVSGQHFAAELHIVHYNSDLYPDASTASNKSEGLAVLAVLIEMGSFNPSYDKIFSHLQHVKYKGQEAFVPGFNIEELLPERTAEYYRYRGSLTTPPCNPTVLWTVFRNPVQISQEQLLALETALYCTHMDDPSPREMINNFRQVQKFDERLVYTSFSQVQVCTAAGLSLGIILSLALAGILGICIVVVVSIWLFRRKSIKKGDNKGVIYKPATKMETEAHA

In general, Ki refers to the equilibrium dissociation constant of an inhibitor or competing ligand from its target. On Carbonic anhydrase 12 [1], `CCc1ccc2ccc(=O)oc2c1C(C)=O` displayed a Ki of 1 nM.

For the compound `CCOc1ccc2nc(S(N)(=O)=O)sc2c1`, the outcome at Carbonic anhydrase 12 [2] and at Carbonic anhydrase 12 [3] was inactive. Besides, the result on Carbonic anhydrase 12 [4] was Active.

Consider `NS(=O)(=O)C(F)(F)F`, for which the outcome on Carbonic anhydrase 12 [2] and at Carbonic anhydrase 12 [3] was inactive. Further, the outcome on Carbonic anhydrase 12 [4] was Active.

On Carbonic anhydrase 12 [1], `CCCc1ccc2ccc(=O)oc2c1C(C)=O` yielded a Ki of 0.98 nM.

Source of the values: ChEMBL document CHEMBL2331104, “Characterization of human carbonic anhydrase XII stability and inhibitor binding” (Bioorg Med Chem, 2013).
